Data as given in patent publication US20240100170A1, “CYCLIC-AMP RESPONSE ELEMENT BINDING PROTEIN (CBP) AND/OR ADENOVIRAL E1A BINDING PROTEIN OF 300 KDA (P300) DEGRADATION COMPOUNDS AND METHODS OF USE” (CULLGEN (SHANGHAI), INC., priority 2020, published 2024).
Where two headings read alike, the source gives them in different places.

Columns and labels:
[1] = biological target: P300 (Homo sapiens, UniProt Q09472); experiment: percentage of inhibition (degradation) of p300 at 10 nM, Tables 2-4; format: cell-based; design: LNCaP or 22RV1 cells that express CBP/P300 proteins were treated with GNE-781 or the bivalent compounds; endogenous in cells; host or cells: LNCaP or 22RV1 (not given); details: for inhibition at 0.01 µM: read-out: Degradation (10 nM)
P300, sequence (Q09472 whole entry): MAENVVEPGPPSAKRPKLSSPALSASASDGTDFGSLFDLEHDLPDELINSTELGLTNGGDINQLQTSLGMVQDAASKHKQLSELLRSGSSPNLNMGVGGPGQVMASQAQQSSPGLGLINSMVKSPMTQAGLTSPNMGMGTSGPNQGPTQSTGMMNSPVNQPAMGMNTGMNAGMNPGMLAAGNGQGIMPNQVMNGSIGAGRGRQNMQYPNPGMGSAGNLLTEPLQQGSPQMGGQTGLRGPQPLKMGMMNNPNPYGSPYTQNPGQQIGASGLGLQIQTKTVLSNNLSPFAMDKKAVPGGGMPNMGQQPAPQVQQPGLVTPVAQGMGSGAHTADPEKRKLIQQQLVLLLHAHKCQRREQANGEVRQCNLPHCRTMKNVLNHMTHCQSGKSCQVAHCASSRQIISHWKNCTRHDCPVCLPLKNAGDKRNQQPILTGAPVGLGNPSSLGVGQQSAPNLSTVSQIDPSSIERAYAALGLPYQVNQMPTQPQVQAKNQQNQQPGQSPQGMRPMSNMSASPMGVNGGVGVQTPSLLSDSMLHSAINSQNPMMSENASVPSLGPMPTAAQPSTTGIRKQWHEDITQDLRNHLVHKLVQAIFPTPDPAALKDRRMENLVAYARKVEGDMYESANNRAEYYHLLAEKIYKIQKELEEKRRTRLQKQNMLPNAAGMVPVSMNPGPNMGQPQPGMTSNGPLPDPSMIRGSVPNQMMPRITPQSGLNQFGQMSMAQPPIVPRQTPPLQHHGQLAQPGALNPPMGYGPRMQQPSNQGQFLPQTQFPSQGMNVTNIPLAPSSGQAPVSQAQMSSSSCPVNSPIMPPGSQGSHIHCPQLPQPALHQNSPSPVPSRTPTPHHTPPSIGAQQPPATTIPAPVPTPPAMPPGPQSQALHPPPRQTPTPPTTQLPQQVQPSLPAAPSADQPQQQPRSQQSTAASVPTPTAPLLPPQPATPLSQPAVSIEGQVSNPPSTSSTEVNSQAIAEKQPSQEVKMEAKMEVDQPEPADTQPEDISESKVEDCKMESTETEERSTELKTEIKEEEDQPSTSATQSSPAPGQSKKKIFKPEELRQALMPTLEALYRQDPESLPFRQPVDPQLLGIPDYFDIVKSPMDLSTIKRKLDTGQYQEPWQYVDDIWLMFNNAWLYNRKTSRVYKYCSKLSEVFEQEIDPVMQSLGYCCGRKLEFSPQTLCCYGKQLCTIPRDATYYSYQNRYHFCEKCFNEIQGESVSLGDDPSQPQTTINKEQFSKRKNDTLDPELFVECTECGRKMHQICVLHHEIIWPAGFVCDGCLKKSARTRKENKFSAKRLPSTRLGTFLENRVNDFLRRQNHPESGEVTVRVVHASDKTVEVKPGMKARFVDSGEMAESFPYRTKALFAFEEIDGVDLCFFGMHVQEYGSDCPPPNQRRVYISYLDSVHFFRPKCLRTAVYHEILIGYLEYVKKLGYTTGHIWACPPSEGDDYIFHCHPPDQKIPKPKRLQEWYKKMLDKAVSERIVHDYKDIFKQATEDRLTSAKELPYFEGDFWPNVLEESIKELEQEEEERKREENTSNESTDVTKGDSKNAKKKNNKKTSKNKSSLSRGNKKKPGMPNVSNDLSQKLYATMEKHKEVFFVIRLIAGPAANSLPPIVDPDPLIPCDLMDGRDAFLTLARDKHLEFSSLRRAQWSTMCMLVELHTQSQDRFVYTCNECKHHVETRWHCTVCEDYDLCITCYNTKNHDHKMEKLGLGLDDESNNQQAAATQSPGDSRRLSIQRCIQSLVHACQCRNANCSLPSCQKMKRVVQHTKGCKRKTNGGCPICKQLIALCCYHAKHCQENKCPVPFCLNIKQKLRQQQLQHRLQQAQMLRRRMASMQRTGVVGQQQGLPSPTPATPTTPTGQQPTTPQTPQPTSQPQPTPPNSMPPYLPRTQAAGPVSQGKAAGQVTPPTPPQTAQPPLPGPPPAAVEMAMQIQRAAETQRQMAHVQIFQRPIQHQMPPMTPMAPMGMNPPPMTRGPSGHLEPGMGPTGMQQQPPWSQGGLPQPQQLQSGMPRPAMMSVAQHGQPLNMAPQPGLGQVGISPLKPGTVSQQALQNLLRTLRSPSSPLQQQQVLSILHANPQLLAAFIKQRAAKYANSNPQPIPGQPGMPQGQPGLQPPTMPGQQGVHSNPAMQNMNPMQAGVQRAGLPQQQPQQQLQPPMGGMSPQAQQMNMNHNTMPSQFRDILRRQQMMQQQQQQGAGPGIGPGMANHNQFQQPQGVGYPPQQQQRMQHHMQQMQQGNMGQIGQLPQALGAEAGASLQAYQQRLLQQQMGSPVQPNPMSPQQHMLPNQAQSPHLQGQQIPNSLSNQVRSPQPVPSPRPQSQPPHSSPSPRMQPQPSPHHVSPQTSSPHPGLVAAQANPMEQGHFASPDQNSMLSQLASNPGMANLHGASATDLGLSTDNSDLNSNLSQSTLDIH
Procedure, shortened: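 Degradation was measured at 10 nM. Cells or tissue were lysed in RIPA with protease and phosphatase inhibitors for 30 min at 4 °C and cleared, and protein was quantified by BCA. Lysates were resolved by SDS-PAGE, detected by chemiluminescent immunoblot, and bands were quantified by densitometry.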

[2] = system: LNCaP prostate cancer cell; experiment: LNCaP cell viability (CellTiter-Glo); format: cell-based; details: Homo sapiens, 72 h, LNCaP cell viability, 3 days, CellTiter-Glo
Procedure, shortened: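 LNCaP cells (5000/well, RPMI 1640 + 10% FBS, 37 °C) treated with compounds in 12-point 3-fold serial dilution for three days. Viability read by CellTiter-Glo luminescence, normalized to untreated cells; IC50 from least-squares nonlinear regression.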

Structure (SMILES) | inhibition at 0.01 µM ([1]; p300, 10 nM, Table 4) | IC50 ([2]; Table 4) | Degradation (10 nM) ([1]; p300, 10 nM, Table 3) | IC50 ([2]; Table 3) | inhibition at 0.01 µM [1]
CC(=O)N1CCc2c(c(N3CCCc4cc(-c5cnn(C)c5)c(C(F)F)cc43)nn2C2CCN(Cc3ccc(COc4cccc5c4C(=O)N(C4CCC(=O)NC4=O)C5)cc3)CC2)C1 (stereo not drawn) [P-194, 3-(7-((4-((4-(5-acetyl-3-(7-(difluoromethyl)-6-(1-methyl-1H-pyrazol-4-yl)-3,4-dihydroquinolin-1(2H)-yl)-4,5,6,7-tetrahydro-1H-pyrazolo[4,3-c]pyridin-1-yl)piperidin-1-yl)methyl)benzyl)oxy)-1-oxoisoindolin-2-yl)piperidine-2,6-dione] | > 80% | 4.9 nM | – | – | –
CC(=O)N1CCc2c(c(N3CCCc4cc(-c5cnn(C)c5)c(C(F)F)cc43)nn2C2CCN(C(=O)CCCCCCCCn3c(=O)n(C4CCC(=O)NC4=O)c4ccccc43)CC2)C1 (stereo not drawn) [P-163, 3-(3-(9-(4-(5-acetyl-3-(7-(difluoromethyl)-6-(1-methyl-1H-pyrazol-4-yl)-3,4-dihydroquinolin-1(2H)-yl)-4,5,6,7-tetrahydro-1H-pyrazolo[4,3-c]pyridin-1-yl)piperidin-1-yl)-9-oxononyl)-2-oxo-2,3-dihydro-1H-benzo[d]imidazol-1-yl)piperidine-2,6-dione] | – | – | A (A: Degradation ≥ 80%) | 0.9 nM | –
CC(=O)N1CCc2c(c(N3CCCc4cc(-c5cnn(C)c5)c(C(F)F)cc43)nn2C2CCN(C(=O)CCCN3CCC(CNc4cccc5c4n(C)c(=O)n5C4CCC(=O)NC4=O)CC3)CC2)C1 (stereo not drawn) [P-214, 3-(4-(((1-(4-(4-(5-Acetyl-3-(7-(difluoromethyl)-6-(1-methyl-1H-pyrazol-4-yl)-3,4-dihydroquinolin-1(2H)-yl)-4,5,6,7-tetrahydro-1H-pyrazolo[4,3-c]pyridin-1-yl)piperidin-1-yl)-4-oxobutyl)piperidin-4-yl)methyl)amino)-3-methyl-2-oxo-2,3-dihydro-1H-benzo[d]imidazol-1-yl)piperidine-2,6-dione] | 20 to 50% | 51.2 nM | – | – | –
CC(=O)N1CCc2c(c(N3CCCc4cc(-c5cnn(C)c5)c(C(F)F)cc43)nn2C2CCN(C(=O)CCCN3CCN(CCCc4cccc5c4n(C)c(=O)n5C4CCC(=O)NC4=O)CC3)CC2)C1 (stereo not drawn) [P-225, 3-(4-(3-(4-(4-(4-(5-Acetyl-3-(7-(difluoromethyl)-6-(1-methyl-1H-pyrazol-4-yl)-3,4-dihydroquinolin-1(2H)-yl)-4,5,6,7-tetrahydro-1H-pyrazolo[4,3-c]pyridin-1-yl)piperidin-1-yl)-4-oxobutyl)piperazin-1-yl)propyl)-3-methyl-2-oxo-2,3-dihydro-1H-benzo[d]imidazol-1-yl)piperidine-2,6-dione] | 50 to 80% | 43.4 nM | – | – | –
CC(=O)N1CCc2c(c(N3CCCc4cc(-c5cnn(C)c5)c(C(F)F)cc43)nn2C2CCN(C(=O)CN3CCN(CCCc4ccc5c(c4)n(C)c(=O)n5C4CCC(=O)NC4=O)CC3)CC2)C1 (stereo not drawn) [P-220, 3-(5-(3-(4-(2-(4-(5-Acetyl-3-(7-(difluoromethyl)-6-(1-methyl-1H-pyrazol-4-yl)-3,4-dihydroquinolin-1(2H)-yl)-4,5,6,7-tetrahydro-1H-pyrazolo[4,3-c]pyridin-1-yl)piperidin-1-yl)-2-oxoethyl)piperazin-1-yl)propyl)-3-methyl-2-oxo-2,3-dihydro-1H-benzo[d]imidazol-1-yl)piperidine-2,6-dione] | 50 to 80% | 15.5 nM | – | – | –
CC(=O)N1CCc2c(c(N3CCCc4cc(-c5cnn(C)c5)c(C(F)F)cc43)nn2C2CCN(C(=O)CCN3CCN(CC#Cc4ccc5c(c4)n(C)c(=O)n5C4CCC(=O)NC4=O)CC3)CC2)C1 (stereo not drawn) [P-233, 3-(5-(3-(4-(3-(4-(5-Acetyl-3-(7-(difluoromethyl)-6-(1-methyl-1H-pyrazol-4-yl)-3,4-dihydroquinolin-1(2H)-yl)-4,5,6,7-tetrahydro-1H-pyrazolo[4,3-c]pyridin-1-yl)piperidin-1-yl)-3-oxopropyl)piperazin-1-yl)prop-1-yn-1-yl)-3-methyl-2-oxo-2,3-dihydro-1H-benzo[d]imidazol-1-yl)piperidine-2,6-dione] | 50 to 80% | 18.2 nM | – | – | –
CC(=O)N1CCc2c(c(N3CCCc4cc(-c5cnn(C)c5)c(C(F)F)cc43)nn2C2CCN(C(=O)CCN3CCC(Cn4c(=O)n(C5CCC(=O)NC5=O)c5ccccc54)CC3)CC2)C1 (stereo not drawn) [P-205, 3-(3-((1-(3-(4-(5-acetyl-3-(7-(difluoromethyl)-6-(1-methyl-1H-pyrazol-4-yl)-3,4-dihydroquinolin-1(2H)-yl)-4,5,6,7-tetrahydro-1H-pyrazolo[4,3-c]pyridin-1-yl)piperidin-1-yl)-3-oxopropyl)piperidin-4-yl)methyl)-2-oxo-2,3-dihydro-1H-benzo[d]imidazol-1-yl)piperidine-2,6-dione] | < 20% | 158 nM | – | – | –
CC(=O)N1CCc2c(c(N3CCCc4cc(-c5cnn(C)c5)c(C(F)F)cc43)nn2C2CCN(Cc3ccc(CNc4cccc5c4CN(C4CCC(=O)NC4=O)C5=O)cc3)CC2)C1 (stereo not drawn) [P-200] | 50 to 80% | 7.9 nM | – | – | –
CC(=O)N1CCc2c(c(N3CCCc4cc(-c5cnn(C)c5)c(C(F)F)cc43)nn2C2CCN(CCN3CCOC(COc4cccc5c4C(=O)N(C4CCC(=O)NC4=O)C5=O)C3)CC2)C1 (stereo not drawn) [P-189, 4-((4-(2-(4-(5-acetyl-3-(7-(difluoromethyl)-6-(1-methyl-1H-pyrazol-4-yl)-3,4-dihydroquinolin-1(2H)-yl)-4,5,6,7-tetrahydro-1H-pyrazolo[4,3-c]pyridin-1-yl)piperidin-1-yl)ethyl)morpholin-2-yl)methoxy)-2-(2,6-dioxopiperidin-3-yl)isoindoline-1,3-dione] | – | 38 nM | – | – | > 80%
CC(=O)N1CCc2c(c(N3CCCc4cc(-c5cnn(C)c5)c(C(F)F)cc43)nn2C2CCN(C(=O)CCN3CCC(CNc4cccc5c4n(C)c(=O)n5C4CCC(=O)NC4=O)CC3)CC2)C1 (stereo not drawn) [P-213, 3-(4-(((1-(3-(4-(5-Acetyl-3-(7-(difluoromethyl)-6-(1-methyl-1H-pyrazol-4-yl)-3,4-dihydroquinolin-1(2H)-yl)-4,5,6,7-tetrahydro-1H-pyrazolo[4,3-c]pyridin-1-yl)piperidin-1-yl)-3-oxopropyl)piperidin-4-yl)methyl)amino)-3-methyl-2-oxo-2,3-dihydro-1H-benzo[d]imidazol-1-yl)piperidine-2,6-dione] | < 20% | 96.8 nM | – | – | –

Now from value to compound, other results behind:

inhibition at 0.01 µM ([1]; p300, 10 nM, Table 4) | IC50 ([2]; Table 4) | Structure (SMILES) | Degradation (10 nM) ([1]; p300, 10 nM, Table 3) | IC50 ([2]; Table 3) | inhibition at 0.01 µM [1]
> 80% | 1.8 nM | CC(=O)N1CCc2c(c(N3CCCc4cc(-c5cnn(C)c5)c(C(F)F)cc43)nn2C2CCN(C(=O)CN3CCC(C#Cc4cccc5c4n(C)c(=O)n5C4CCC(=O)NC4=O)CC3)CC2)C1 (stereo not drawn) [P-227, 3-(4-((1-(2-(4-(5-acetyl-3-(7-(difluoromethyl)-6-(1-methyl-1H-pyrazol-4-yl)-3,4-dihydroquinolin-1(2H)-yl)-4,5,6,7-tetrahydro-1H-pyrazolo[4,3-c]pyridin-1-yl)piperidin-1-yl)-2-oxoethyl)piperidin-4-yl)ethynyl)-3-methyl-2-oxo-2,3-dihydro-1H-benzo[d]imidazol-1-yl)piperidine-2,6-dione] | – | – | –
> 80% | 2.4 nM | CC(=O)N1CCc2c(c(N3CCCc4cc(-c5cnn(C)c5)c(C(F)F)cc43)nn2C2CCN(Cc3ccc(CNc4cccc5c4CN(C4CCC(=O)NC4=O)C5=O)nc3)CC2)C1 (stereo not drawn) [P-196, 3-(4-(((5-((4-(5-acetyl-3-(7-(difluoromethyl)-6-(1-methyl-1H-pyrazol-4-yl)-3,4-dihydroquinolin-1(2H)-yl)-4,5,6,7-tetrahydro-1H-pyrazolo[4,3-c]pyridin-1-yl)piperidin-1-yl)methyl)pyridin-2-yl)methyl)amino)-1-oxoisoindolin-2-yl)piperidine-2,6-dione] | – | – | –
> 80% | 1.4 nM | CC(=O)N1CCc2c(c(N3CCCc4cc(-c5cnn(C)c5)c(C(F)F)cc43)nn2C2CCN(C(=O)CCCCNc3ccc(C(=O)NC4CCC(=O)NC4=O)c4ncccc34)CC2)C1 (stereo not drawn) [P-241, 5-((5-(4-(5-acetyl-3-(7-(difluoromethyl)-6-(1-methyl-1H-pyrazol-4-yl)-3,4-dihydroquinolin-1(2H)-yl)-4,5,6,7-tetrahydro-1H-pyrazolo[4,3-c]pyridin-1-yl)piperidin-1-yl)-5-oxopentyl)amino)-N-(2,6-dioxopiperidin-3-yl)quinoline-8-carboxamide] | – | – | –
> 80% | 0.3 nM | CC(=O)N1CCc2c(c(N3CCCc4cc(-c5cnn(C)c5)c(C(F)F)cc43)nn2C2CCN(CCCN3CCC(C#Cc4cccc5c4n(C)c(=O)n5C4CCC(=O)NC4=O)CC3)CC2)C1 (stereo not drawn) [P-250, 3-(4-((1-(3-(4-(5-acetyl-3-(7-(difluoromethyl)-6-(1-methyl-1H-pyrazol-4-yl)-3,4-dihydroquinolin-1(2H)-yl)-4,5,6,7-tetrahydro-1H-pyrazolo[4,3-c]pyridin-1-yl)piperidin-1-yl)propyl)piperidin-4-yl)ethynyl)-3-methyl-2-oxo-2,3-dihydro-1H-benzo[d]imidazol-1-yl)piperidine-2,6-dione] | – | – | –
> 80% | 0.1 nM | CC(=O)N1CCc2c(c(N3CCCc4cc(-c5cnn(C)c5)c(C(F)F)cc43)nn2C2CCN(CCCC3CCN(c4cccc5c4C(=O)N(C4CCC(=O)NC4=O)C5=O)CC3)CC2)C1 (stereo not drawn) [P-249, 4-(4-(3-(4-(5-acetyl-3-(7-(difluoromethyl)-6-(1-methyl-1H-pyrazol-4-yl)-3,4-dihydroquinolin-1(2H)-yl)-4,5,6,7-tetrahydro-1H-pyrazolo[4,3-c]pyridin-1-yl)piperidin-1-yl)propyl)piperidin-1-yl)-2-(2,6-dioxopiperidin-3-yl)isoindoline-1,3-dione] | – | – | –
